Assay results taken from patent publication US11672792B2, “Topical formulations comprising montelukast and combinations with mussel adhesive proteins” (ENLITISA (SHANGHAI) PHARMACEUTICAL CO., LTD, priority 2017, dated 2023).

System: carrageenan-induced acute inflammation in subcutaneous air pouch
Assay: Air Pouch Model II (Example 2)
Type: in vivo, mice
Protocol: In Table 6, “Dex” is an abbreviation for dexamethasone and “Dopamine” is a 4 mg/mL aqueous solution of dopamine hydrochloride (Shanghai Aladdin Bio-Chem Technology Co., Ltd., Shanghai, China).
The histological specimens were analysed and an inflammation score, an activity score and a fibroplastic proliferation score were estimated as in Example 1 above and are tabulated in Table 9 below.

[1] = Dex 400 μg, Dopamine 2 mg, MAP 250 μg, Mon 100 μg
[2] = doses/mouse: Dex 400 μg, Dopamine 2 mg, MAP 250 μg, Mon 100 μg

With `Cl.NCCc1ccc(O)c(O)c1` [Dopamine, dopamine hydrochloride] the Activity score [1] was 1.67, the “Edema Score” value [1] was 2.33 and the Fibroplastic proliferation score [1] was 0.00. For the same compound, the “IFN-γ in exudate (ELISA)” value [1] was 5153.02 ± 5773.45, the “IL-6 in exudate (ELISA)” value [1] was 1740.11 ± 765.02 and the Inflammation score [1] was 2.00. The “Leukocyte count in exudate” value [1] was 1.91e+06 mL⁻¹, the “Lymphocyte count in exudate” value [1] was 50000 mL⁻¹ and the “Monocyte count in exudate” value [1] was 1.58e+06 mL⁻¹. For the same compound, the “Neutrophil count in exudate” value [1] was 190000 mL⁻¹, the “Sum (of histology scores)” value [1] was 6.00 and the “Exudate volume” value [2] was 2.93 ± 0.06 mL. For the same compound, the “Pouch Wall Weight” value [2] was 0.44 ± 0.07 g, the “pouch wall fibrous tissue proliferation (in words)” value (histology) was “no fibrous tissue proliferation” and the “pouch wall inflammatory / lymph cell infiltration (in words)” value (histology) was “a lot of”. For the same compound, the “pouch wall interstitial edema (in words)” value (histology) was “mild to moderate”.
